Test results published in patent US7838049B2, “Extracts and compounds for inhibiting tyrosinase activity” (Taipei Medical University, priority 2009, dated 2010).

How the values were obtained:
tyrosinase [1] = target: T1, tyrosinase (Homo sapiens, UniProt P14679); assay: Assay of tyrosinase activity in human melanocyte (HEMn) cells; type: cell-based; settings: for inhibitory activity on tyrosinase: HEMn cells treated 24 hours, lysate reacted with L-DOPA, OD475 vs control, FIG. 1 and FIG. 2
T1 construct: Lysis buffer (1% Triton X-100, 1 mM phenylmethylsulfonyl fluoride (PMSF), 1 μg/ml aprotinin, and 10 μg/ml leupeptin) was added to the resulting cells to obtain the cell proteins; host or cells: HEMn human melanocytes, passages 3 to 10
T1 sequence (P14679 19-529): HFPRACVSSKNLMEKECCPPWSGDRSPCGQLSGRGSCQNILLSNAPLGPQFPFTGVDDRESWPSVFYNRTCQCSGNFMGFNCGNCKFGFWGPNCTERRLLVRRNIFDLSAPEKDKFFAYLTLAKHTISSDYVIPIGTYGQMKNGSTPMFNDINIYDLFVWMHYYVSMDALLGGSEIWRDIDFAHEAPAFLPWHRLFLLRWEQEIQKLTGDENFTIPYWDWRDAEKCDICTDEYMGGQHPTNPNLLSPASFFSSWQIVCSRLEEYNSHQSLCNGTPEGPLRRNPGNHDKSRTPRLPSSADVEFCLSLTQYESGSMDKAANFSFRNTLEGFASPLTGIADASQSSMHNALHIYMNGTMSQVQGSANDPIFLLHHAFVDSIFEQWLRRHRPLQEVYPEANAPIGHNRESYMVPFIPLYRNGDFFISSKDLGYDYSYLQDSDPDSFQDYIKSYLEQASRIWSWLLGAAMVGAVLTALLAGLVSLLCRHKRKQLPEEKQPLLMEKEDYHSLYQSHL
Procedure: Human melanocyte (HEMn) cells are cultured with medium 254 containing antibiotics and growth factors (Cascade Biologics, Inc., Portland, Oreg., USA) in an incubator with 5% CO2 for serial passage. Passages 3 to 10 of the HEMn cells were used in the experiments below.
HEMn cells were further cultured for 48 hours and then the ethyl acetate extract of the invention and the test compounds (MHL-1: 3,4-dihydroxy-5-methoxybiphenyl-2′-O-β-d-glucopyranoside and MHL-2: 3,6-dihydroxy-2,4-dimethoxy-dibenzofuran) were added. After 24 hours, the cells were washed with PBS buffer. Lysis buffer (1% Triton X-100, 1 mM phenylmethylsulfonyl fluoride (PMSF), 1 μg/ml aprotinin, and 10 μg/ml leupeptin) was added to the resulting cells to obtain the cell proteins. The cell proteins were kept at −80° C. Subsequently, the cell proteins were thawed and then centrifuged at 12,000 rpm for 5 minutes. The supernatant was taken for determination of the amount of protein by BCA protein assay. The proteins with different concentrations were added to a 96-well microplate and then PBS buffers were added. L-DOPA was added to the microplate to react with the protein at 37° C. for 1 hour. The absorbance of the solution at 475 nm wavelength was detected. Tyrosinase activity (%)=(OD475 of the sample/OD475 of control)×100.
Arbutin as positive control and 1% DMSO as blank were used in the tyrosinase activity assay stated above. […] MHL-1 and MHL-2 inhibit around 40% and 20% tyrosinase activity, respectively. The ethyl acetate extract and the compounds of the invention are effective in inhibiting tyrosinase.

tyrosinase [2] = target: T1, tyrosinase; assay: Tyrosinase oxidative activity analysis by L-Dopa staining of SDS-PAGE gels; type: cell-based; settings: HEMn cells treated with 100, 80 and 60 μM of MHL-1; FIG. 3
Procedure: The compound of the invention, MHL-1, with different concentrations was added to HEMn cells. The lysis of HEMn cells, isolation of cell proteins and BCA protein assay were performed on the supernatant obtained as stated in Example 1 so that the amount of the protein could be determined. 10% SDS-polyacrylamide gel electrophoresis (dd-H2O; 10% Acrylamide mix; 1.5M Tris-base pH8.8; 10% SDS; 10% Ammonium persulfate; TEMED) was performed on the resulting protein and the sample buffer (60 mM Tris-HCl, pH 6.8, 2% sodium dodecyl sulfate (SDS), 10% glycerol, 0.01% bromophenol blue) at the same time. The molecular weight of tyrosinase was about 72 kDa. The resulting gels were washed with 0.1 M of PBS (pH 6.8) for 30 minutes and then the protein at the position of 72 kDa reacted with 5 mM L-DOPA in 0.1 M PBS at 37° C. for 1 hour. After the reaction, Quantity One 1-D software was used to determine the amount of protein.

Row | inhibitory activity on tyrosinase (tyrosinase [1]) | tyrosinase inhibitory activity compared with arbutin (positive control) (tyrosinase [1]; HEMn cells, FIG. 2) | Compound | tyrosinase oxidative activity (L-DOPA staining of the 72 kDa band) (tyrosinase [2])
1 | around 40% | superior activity compared to arbutin | COc1cc(-c2ccccc2OC2OC(CO)C(O)C(O)C2O)cc(O)c1O [MHL-1, 3,4-dihydroxy-5-methoxybiphenyl-2′-O-β-D-glucopyranoside] | the higher the concentration of MHL-1, the lower the tyrosinase oxidative activity
2 | ~20% |  | COc1cc2c(oc3c(O)cccc32)c(OC)c1O [MHL-2, 3,6-dihydroxy-2,4-dimethoxy-dibenzofuran] | 
